Results: article PMC3814616, “BRAF inhibitors suppress apoptosis through off-target inhibition of JNK signaling” (eLife, 2013)

Legend:
Experiment in all cases: Quantitative competitive binding assay (KINOMEscan)
MAP4K5 = target: T1, MAP4K5 (Homo sapiens, UniProt Q9Y4K4); settings: for IC50: estimated Kd, averaged pointwise estimates, transformed Hill equation, read-out: Calculated estimate of IC50; for remaining binding at 0.05 µM: read-out: Percent control (50 nM); for remaining binding at 0.2 µM: read-out: Percent control (200 nM); for remaining binding at 1 µM: read-out: Percent control (1000 nM); for remaining binding at 10 µM: read-out: Percent control (10 μM)
T1 construct: purchased KINOMEscan (DiscoveRx), San Diego, CA
T1 sequence (Q9Y4K4 whole entry): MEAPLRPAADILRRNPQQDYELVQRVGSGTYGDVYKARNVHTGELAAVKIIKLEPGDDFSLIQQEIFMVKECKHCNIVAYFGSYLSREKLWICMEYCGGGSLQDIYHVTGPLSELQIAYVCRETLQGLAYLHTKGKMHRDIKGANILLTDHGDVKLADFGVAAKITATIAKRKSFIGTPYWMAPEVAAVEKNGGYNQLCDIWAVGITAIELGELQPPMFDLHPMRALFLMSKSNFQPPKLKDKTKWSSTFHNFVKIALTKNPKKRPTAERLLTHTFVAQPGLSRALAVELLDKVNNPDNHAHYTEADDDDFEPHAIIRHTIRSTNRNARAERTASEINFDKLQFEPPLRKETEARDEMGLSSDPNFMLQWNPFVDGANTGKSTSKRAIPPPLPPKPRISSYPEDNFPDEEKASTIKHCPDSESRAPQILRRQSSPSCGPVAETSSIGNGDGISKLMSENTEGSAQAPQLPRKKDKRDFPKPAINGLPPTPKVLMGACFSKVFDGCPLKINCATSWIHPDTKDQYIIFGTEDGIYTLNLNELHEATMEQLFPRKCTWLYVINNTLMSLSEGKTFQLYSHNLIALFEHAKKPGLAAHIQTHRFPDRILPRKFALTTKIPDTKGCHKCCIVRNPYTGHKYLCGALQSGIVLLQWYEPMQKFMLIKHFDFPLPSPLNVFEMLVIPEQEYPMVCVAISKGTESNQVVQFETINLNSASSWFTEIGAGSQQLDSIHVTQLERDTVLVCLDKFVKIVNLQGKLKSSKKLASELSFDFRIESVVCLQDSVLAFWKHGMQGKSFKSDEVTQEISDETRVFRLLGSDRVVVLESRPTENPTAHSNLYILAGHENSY

DLK (MAP3K12) = target: T2, DLK (MAP3K12) (Homo sapiens, UniProt Q12852); settings: for remaining binding at 0.05 µM: read-out: Percent control (50 nM); for remaining binding at 0.2 µM: read-out: Percent control (200 nM); for remaining binding at 1 µM: read-out: Percent control (1000 nM); for remaining binding at 10 µM: read-out: Percent control (10 μM)
T2 construct: purchased KINOMEscan (DiscoveRx), San Diego, CA
T2 sequence (Q12852 whole entry): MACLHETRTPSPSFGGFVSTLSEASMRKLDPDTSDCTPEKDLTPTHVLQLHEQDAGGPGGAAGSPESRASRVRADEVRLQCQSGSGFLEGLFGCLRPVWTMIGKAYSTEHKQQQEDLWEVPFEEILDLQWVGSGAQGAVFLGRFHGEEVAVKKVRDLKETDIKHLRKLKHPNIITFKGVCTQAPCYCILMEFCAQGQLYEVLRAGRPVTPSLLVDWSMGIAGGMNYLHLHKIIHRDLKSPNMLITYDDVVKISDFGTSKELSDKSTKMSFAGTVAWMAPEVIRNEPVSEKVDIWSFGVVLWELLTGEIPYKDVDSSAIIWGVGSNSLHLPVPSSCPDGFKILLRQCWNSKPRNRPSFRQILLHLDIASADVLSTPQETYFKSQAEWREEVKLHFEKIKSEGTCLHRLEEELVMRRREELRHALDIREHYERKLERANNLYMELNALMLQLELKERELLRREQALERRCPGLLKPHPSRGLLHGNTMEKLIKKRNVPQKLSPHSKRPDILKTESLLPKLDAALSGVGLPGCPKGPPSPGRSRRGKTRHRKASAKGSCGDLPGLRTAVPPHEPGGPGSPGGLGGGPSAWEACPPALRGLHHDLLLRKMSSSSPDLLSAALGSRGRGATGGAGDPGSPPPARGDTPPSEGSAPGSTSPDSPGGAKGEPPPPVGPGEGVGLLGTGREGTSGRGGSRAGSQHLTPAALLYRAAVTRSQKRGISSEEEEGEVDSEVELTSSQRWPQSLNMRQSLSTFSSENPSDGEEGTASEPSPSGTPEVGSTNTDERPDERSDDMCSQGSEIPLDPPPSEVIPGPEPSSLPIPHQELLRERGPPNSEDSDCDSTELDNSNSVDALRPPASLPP

MAP4K4 = target: T3, MAP4K4 (Homo sapiens, UniProt O95819); settings: for remaining binding at 0.05 µM: read-out: Percent control (50 nM); for remaining binding at 0.2 µM: read-out: Percent control (200 nM); for remaining binding at 10 µM: read-out: Percent control (10 μM)
T3 construct: purchased KINOMEscan (DiscoveRx), San Diego, CA
T3 sequence (O95819 whole entry): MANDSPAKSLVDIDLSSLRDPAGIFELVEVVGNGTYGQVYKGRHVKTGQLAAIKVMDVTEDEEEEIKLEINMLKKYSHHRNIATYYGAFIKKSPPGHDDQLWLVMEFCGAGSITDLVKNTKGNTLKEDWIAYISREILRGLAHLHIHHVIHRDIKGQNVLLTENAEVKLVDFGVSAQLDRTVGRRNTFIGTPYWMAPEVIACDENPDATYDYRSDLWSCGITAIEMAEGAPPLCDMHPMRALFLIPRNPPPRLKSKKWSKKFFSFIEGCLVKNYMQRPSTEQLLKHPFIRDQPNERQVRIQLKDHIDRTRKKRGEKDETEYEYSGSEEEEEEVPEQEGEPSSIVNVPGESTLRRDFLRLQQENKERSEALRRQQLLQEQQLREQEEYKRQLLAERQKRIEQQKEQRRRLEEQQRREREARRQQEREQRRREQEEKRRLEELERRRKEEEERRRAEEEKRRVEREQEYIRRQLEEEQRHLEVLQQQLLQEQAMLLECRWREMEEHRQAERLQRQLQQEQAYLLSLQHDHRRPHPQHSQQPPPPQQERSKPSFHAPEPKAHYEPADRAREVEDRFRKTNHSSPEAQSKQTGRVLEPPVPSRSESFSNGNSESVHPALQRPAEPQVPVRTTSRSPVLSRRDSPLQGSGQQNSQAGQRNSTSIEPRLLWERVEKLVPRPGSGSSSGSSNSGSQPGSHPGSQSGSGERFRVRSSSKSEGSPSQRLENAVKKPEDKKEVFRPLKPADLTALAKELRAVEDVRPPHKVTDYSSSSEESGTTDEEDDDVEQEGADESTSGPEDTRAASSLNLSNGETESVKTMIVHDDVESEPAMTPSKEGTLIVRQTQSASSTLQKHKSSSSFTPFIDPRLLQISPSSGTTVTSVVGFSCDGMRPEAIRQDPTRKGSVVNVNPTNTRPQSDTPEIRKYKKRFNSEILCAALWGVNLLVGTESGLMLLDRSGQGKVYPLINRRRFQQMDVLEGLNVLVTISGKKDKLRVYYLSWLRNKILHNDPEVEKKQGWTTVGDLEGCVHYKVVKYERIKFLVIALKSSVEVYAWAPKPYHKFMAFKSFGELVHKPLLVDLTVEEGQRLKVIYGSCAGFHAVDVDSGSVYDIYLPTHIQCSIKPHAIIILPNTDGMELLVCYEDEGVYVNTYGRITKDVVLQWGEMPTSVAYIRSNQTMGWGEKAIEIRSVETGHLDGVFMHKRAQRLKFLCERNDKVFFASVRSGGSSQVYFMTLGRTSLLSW

TAOK2 = target: T4, TAOK2 (Homo sapiens, UniProt Q9UL54); settings: for remaining binding at 0.05 µM: read-out: Percent control (50 nM); for remaining binding at 0.2 µM: read-out: Percent control (200 nM); for remaining binding at 1 µM: read-out: Percent control (1000 nM); for remaining binding at 10 µM: read-out: Percent control (10 μM)
T4 construct: purchased KINOMEscan (DiscoveRx), San Diego, CA
T4 sequence (Q9UL54 1-1235): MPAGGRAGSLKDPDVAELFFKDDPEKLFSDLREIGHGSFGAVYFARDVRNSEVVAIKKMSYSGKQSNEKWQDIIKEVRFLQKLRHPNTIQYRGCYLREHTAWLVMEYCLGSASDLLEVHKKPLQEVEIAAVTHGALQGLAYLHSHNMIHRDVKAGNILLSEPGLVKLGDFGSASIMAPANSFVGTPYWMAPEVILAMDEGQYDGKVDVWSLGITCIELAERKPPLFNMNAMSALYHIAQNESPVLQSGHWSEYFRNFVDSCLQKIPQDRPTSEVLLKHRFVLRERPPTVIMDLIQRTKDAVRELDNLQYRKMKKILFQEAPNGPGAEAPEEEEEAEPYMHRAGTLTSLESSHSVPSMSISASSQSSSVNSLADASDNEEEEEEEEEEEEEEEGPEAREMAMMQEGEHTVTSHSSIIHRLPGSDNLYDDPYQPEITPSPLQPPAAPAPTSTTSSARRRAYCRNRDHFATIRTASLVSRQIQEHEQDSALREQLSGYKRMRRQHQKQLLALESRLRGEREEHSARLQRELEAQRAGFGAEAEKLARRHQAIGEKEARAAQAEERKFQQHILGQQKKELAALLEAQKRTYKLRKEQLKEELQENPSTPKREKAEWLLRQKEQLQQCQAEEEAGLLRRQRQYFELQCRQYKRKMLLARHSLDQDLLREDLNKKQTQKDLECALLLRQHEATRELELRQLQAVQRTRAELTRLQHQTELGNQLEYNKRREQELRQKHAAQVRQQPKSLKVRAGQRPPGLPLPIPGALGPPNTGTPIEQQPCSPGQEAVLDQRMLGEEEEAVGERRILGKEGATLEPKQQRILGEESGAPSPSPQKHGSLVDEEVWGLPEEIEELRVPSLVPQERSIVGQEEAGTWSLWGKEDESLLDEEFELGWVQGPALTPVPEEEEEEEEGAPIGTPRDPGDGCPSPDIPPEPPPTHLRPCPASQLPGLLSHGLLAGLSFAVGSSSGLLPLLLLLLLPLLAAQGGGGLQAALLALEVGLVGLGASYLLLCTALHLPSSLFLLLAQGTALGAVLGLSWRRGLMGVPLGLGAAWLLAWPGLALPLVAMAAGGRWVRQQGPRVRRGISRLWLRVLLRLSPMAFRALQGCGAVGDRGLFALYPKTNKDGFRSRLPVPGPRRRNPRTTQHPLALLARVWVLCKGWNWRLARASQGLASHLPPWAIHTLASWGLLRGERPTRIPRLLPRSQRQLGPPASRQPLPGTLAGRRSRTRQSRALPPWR

TNIK = target: T5, TNIK (Homo sapiens, UniProt Q9UKE5); settings: for remaining binding at 0.05 µM: read-out: Percent control (50 nM); for remaining binding at 0.2 µM: read-out: Percent control (200 nM); for remaining binding at 1 µM: read-out: Percent control (1000 nM); for remaining binding at 10 µM: read-out: Percent control (10 μM)
T5 construct: purchased KINOMEscan (DiscoveRx), San Diego, CA
T5 sequence (Q9UKE5 whole entry): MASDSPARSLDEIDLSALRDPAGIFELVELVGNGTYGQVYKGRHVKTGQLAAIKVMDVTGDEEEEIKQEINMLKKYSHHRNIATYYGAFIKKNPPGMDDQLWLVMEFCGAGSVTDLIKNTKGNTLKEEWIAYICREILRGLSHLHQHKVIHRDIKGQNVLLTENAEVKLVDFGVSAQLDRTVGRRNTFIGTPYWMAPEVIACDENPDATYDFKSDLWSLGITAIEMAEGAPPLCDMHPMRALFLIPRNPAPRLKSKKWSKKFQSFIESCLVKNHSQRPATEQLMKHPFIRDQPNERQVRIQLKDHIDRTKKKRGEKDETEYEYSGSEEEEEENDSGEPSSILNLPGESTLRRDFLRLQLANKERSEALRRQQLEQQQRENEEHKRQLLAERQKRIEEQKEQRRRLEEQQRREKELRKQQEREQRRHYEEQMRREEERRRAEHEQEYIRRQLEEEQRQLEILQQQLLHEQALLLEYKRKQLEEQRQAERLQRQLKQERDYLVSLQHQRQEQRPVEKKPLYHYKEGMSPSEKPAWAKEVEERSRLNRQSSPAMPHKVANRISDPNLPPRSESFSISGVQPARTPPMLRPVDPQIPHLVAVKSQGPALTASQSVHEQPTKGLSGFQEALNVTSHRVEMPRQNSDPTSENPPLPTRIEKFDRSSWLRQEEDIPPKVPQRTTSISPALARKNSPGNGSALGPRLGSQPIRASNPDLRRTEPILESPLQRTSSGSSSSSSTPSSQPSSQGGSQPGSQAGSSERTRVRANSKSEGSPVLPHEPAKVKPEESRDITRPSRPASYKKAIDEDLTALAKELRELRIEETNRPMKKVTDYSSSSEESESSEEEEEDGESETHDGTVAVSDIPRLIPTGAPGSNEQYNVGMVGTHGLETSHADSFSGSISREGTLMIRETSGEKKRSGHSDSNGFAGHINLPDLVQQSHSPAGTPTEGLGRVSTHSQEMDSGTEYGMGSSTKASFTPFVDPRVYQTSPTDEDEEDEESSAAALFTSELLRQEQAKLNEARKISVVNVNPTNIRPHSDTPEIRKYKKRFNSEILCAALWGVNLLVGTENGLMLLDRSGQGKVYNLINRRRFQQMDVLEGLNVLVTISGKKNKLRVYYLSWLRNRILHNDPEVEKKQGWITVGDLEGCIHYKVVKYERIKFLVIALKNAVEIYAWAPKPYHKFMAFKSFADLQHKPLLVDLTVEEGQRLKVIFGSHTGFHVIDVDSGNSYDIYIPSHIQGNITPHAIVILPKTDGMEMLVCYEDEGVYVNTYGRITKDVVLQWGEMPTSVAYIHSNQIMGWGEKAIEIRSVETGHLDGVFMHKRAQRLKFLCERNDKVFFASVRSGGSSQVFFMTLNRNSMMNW

LZK (MAP3K13) = target: T6, LZK (MAP3K13) (Homo sapiens, UniProt O43283); settings: for remaining binding at 0.05 µM: read-out: Percent control (50 nM); for remaining binding at 0.2 µM: read-out: Percent control (200 nM); for remaining binding at 1 µM: read-out: Percent control (1000 nM); for remaining binding at 10 µM: read-out: Percent control (10 μM)
T6 construct: purchased KINOMEscan (DiscoveRx), San Diego, CA
T6 sequence (O43283 1-966): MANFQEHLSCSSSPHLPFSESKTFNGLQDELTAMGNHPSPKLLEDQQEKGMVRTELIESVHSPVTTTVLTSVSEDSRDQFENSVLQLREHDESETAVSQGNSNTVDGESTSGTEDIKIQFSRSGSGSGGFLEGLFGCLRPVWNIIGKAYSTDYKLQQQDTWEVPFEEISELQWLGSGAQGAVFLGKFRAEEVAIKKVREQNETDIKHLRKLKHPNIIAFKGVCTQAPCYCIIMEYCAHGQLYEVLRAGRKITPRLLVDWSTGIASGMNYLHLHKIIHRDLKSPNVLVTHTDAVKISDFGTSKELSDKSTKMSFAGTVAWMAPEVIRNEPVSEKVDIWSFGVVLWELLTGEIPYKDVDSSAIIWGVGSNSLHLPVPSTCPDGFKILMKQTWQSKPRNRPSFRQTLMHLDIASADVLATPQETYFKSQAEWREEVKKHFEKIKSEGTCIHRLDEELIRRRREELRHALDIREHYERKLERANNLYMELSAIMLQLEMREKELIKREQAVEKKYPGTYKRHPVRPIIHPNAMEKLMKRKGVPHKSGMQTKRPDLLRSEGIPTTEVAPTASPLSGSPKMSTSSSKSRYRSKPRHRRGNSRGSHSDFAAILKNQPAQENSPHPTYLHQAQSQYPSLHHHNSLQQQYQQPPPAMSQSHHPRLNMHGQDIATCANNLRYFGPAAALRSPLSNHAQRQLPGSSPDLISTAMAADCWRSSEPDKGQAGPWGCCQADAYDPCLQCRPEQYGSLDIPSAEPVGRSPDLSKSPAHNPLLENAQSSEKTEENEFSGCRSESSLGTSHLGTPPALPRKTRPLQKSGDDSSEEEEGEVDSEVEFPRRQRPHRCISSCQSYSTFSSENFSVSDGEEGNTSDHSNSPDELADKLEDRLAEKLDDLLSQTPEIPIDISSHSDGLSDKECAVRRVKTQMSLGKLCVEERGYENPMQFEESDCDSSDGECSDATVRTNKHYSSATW

[1] = estimated Kd, averaged pointwise estimates, transformed Hill equation, read-out: Calculated estimate of IC50

| Compound | IC50 (MAP4K5) [µM] | remaining binding at 0.05 µM (MAP4K5) [%] | remaining binding at 0.2 µM (MAP4K5) [%] | remaining binding at 1 µM (MAP4K5) [%] | remaining binding at 10 µM (MAP4K5) [%] | remaining binding at 0.05 µM (DLK (MAP3K12)) [%] | remaining binding at 0.2 µM (DLK (MAP3K12)) [%] | remaining binding at 1 µM (DLK (MAP3K12)) [%] | remaining binding at 10 µM (DLK (MAP3K12)) [%] | remaining binding at 0.05 µM (MAP4K4) [%] | remaining binding at 0.2 µM (MAP4K4) [%] | remaining binding at 10 µM (MAP4K4) [%] | remaining binding at 0.05 µM (TAOK2) [%] | remaining binding at 0.2 µM (TAOK2) [%] | remaining binding at 1 µM (TAOK2) [%] | remaining binding at 10 µM (TAOK2) [%] | remaining binding at 0.05 µM (TNIK) [%] | remaining binding at 0.2 µM (TNIK) [%] | remaining binding at 1 µM (TNIK) [%] | remaining binding at 10 µM (TNIK) [%] | also measured |
| --- | --- | --- | --- | --- | --- | --- | --- | --- | --- | --- | --- | --- | --- | --- | --- | --- | --- | --- | --- | --- | --- |
| CCCS(=O)(=O)Nc1ccc(F)c(C(=O)c2c[nH]c3ncc(-c4ccc(Cl)cc4)cc23)c1F [vemurafenib] | 0.0582 | 62 | 33 | 4.1 | 0.1 | 98 | 97 | 66 | 92 | 96 | 92 | 23 | 98 | 92 | 95 | 70 | 95 | 94 | 66 | 11 | IC50 (MAP4K4; [1]): 2.84 µM; IC50 (TAOK2; [1]): 11.8 µM; remaining binding at 0.05 µM (LZK (MAP3K13)): 100%; remaining binding at 0.2 µM (LZK (MAP3K13)): 99%; remaining binding at 1 µM (LZK (MAP3K13)): 93%; remaining binding at 10 µM (LZK (MAP3K13)): 74% |
| CCCS(=O)(=O)Nc1ccc(F)c(C(=O)c2c[nH]c3ncc(Cl)cc23)c1F [PLX4720] | 1.26 | 96 | 100 | 63 | 8 | 95 | 98 | 100 | 92 | 92 | 99 | 46 | 92 | 100 | 93 | 51 | 97 | 89 | 79 | 24 | remaining binding at 1 µM (MAP4K4; read-out: Percent control (1000 nM)): 100%; remaining binding at 0.05 µM (LZK (MAP3K13)): 94%; remaining binding at 0.2 µM (LZK (MAP3K13)): 100%; remaining binding at 1 µM (LZK (MAP3K13)): 96%; remaining binding at 10 µM (LZK (MAP3K13)): 75% |
